{"source": "patent US10813920B2", "about": "“Drug for treating corneal endothelium by promoting cell proliferation or inhibiting cell damage” (THE DOSHISHA, priority 2013, dated 2020)", "tested_on": "human corneal endothelial cells", "experiment": "Na+/K+-ATPase and ZO-1 immunostaining (pumping and barrier function markers)", "format": "cell-based", "settings": "1, 3, 10 μM; immunostaining after 20 days", "experimental": "*Human corneal endothelial cells (HCEC, where the cells were obtained and culturing method thereof): HCEC was cultured as follows. In short, Descemet's membrane including corneal endothelial cells was peeled off from a corneal for research purchased from the Seattle Eye Bank, and the corneal endothelial cells were mechanically peeled off with a basal membrane. After collagenase (ROCHE catalog No: 10 103 586 001) was used to detach and collect the corneal endothelial cell from the basal membrane (typically 1 mg/mL collagenase A (Roche Applied Science) was used for treatment at 37° C. for 2 hours), the cells were subjected to primary culture. The medium used was Opti-MEM I Reduced-Serum Medium, Liquid (INVITROGEN catalog No.: 31985-070) to which 8% fetal bovine serum (FBS) (BIOWEST, catalog No.: S1820-500), […] of CaCl2.2H2O (SIGMA catalog No.: C7902-500G), 0.08% of chondroitin sulfate (SIGMA catalog No.: C9819-5G), 20 μg/ml of ascorbic acid (SIGMA catalog No.: A4544-25G), 50 μg/ml of gentamicin (INVITROGEN catalog No.: 15710-064) and 5 ng/ml of EGF (INVITROGEN catalog No.: PHG0311) were added and acclimated for a 3T3 feeder cell. […] Immunostaining was applied to the cells for observation with a fluorescence microscope. […]", "data": [{"smiles": "C[S+]([O-])c1ccc(-c2nc(-c3ccncc3)c(-c3ccc(F)cc3)[nH]2)cc1", "note": "(stereo not shown) [SB203580, 4-(4-fluorophenyl)-2-(4-methylsulfinylphenyl)-5-(4-pyridyl)-1H-imidazole]", "values": [{"measurement": "expression of Na+/K+-ATPase and ZO-1", "value": "express Na^+/K^+-ATPase and ZO-1 and to maintain normal functions in all cells"}]}]}
